Measured values: US7157479B2, “Oxazol/thiazol-derivatives activators of the hPPAR-alpha receptor” (Glaxo Group Limited, priority 2001, dated 2007)

What was measured:
hPPAR gamma = target: T1, hPPAR gamma (Homo sapiens, UniProt P37231); assay: Transient transfection (transactivation) assay in CV-1 cells, hPPAR gamma; assay type: cell-based; settings: GAL4 chimera, SPAP reporter, read-out: EC50 nM HPPARy
T1 construct: expressed in transfected cells; host or cells: CV-1 cells
T1 sequence (P37231 238-503 limits assumed): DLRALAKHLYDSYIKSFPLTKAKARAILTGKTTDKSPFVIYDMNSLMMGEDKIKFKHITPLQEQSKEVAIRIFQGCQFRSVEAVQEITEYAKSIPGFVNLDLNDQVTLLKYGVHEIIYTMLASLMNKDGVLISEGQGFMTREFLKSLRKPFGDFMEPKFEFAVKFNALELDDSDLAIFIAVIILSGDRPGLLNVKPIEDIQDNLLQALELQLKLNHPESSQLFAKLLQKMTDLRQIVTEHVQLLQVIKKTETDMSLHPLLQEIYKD
Text: (§1) Compounds were screened for functional potency in transient transfection assays in CV-1 cells for their ability to activate the PPAR subtypes (transactivation assay). A previously established chimeric receptor system was utilized to allow comparison of the relative transcriptional activity of the receptor subtypes on the same target gene and to prevent endogenous receptor activation from complicating the interpretation of results. See, for example, Lehmann, J. M.; Moore, L. B.; Smith-Oliver, T. A.; Wilkison, W. O.; Willson, T. M.; Kliewer, S. A., An antidiabetic thiazolidinedione is a high affinity ligand for peroxisome proliferator-activated receptor gamma (PPARgamma), J. Biol. Chem., 1995, 270, 12953–6. The ligand binding domains for murine and human PPAR alpha, PPAR gamma, and PPAR delta were each fused to the yeast transcription factor GAL4 DNA binding domain. CV-1 cells were transiently transfected with expression vectors for the respective PPAR chimera along with0 a reporter construct containing five copies of the GAL4 DNA binding site driving expression of secreted placental alkaline phosphatase (SPAP) and β-galactosidase. After 16 h, the medium was exchanged to DME medium supplemented with 10% delipidated fetal calf serum and the test compound at the appropriate concentration. […]

hPPAR delta = target: T2, hPPAR delta (Homo sapiens, UniProt Q03181); assay: Transient transfection (transactivation) assay in CV-1 cells, hPPAR delta; assay type: cell-based; settings: GAL4 chimera, SPAP reporter, read-out: EC50 nM HPPARδ
T2 construct: expressed in transfected cells; host or cells: CV-1 cells
T2 sequence (Q03181 211-439 limits assumed): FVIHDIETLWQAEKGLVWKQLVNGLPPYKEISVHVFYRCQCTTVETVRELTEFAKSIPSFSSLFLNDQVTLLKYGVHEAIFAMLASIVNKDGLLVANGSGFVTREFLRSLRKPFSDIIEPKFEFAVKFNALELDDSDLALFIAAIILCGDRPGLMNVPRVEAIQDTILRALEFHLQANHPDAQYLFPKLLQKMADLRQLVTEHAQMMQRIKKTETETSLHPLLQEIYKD
Text: as §1

hPPAR alpha = target: T3, hPPAR alpha (Homo sapiens, UniProt Q07869); assay: Transient transfection (transactivation) assay in CV-1 cells, hPPAR alpha; assay type: cell-based; settings: GAL4 chimera, SPAP reporter, read-out: EC50 nM HPPARα
T3 construct: expressed in transfected cells; host or cells: CV-1 cells
T3 sequence (Q07869 239-466 limits assumed): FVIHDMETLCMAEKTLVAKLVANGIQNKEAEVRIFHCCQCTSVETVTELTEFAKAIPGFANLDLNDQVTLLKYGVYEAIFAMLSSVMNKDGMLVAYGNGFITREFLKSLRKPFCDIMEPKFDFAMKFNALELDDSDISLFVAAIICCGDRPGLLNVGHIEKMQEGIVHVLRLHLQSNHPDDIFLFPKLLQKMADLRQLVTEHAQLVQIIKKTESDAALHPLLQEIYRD
Text: as §1

Row | EC50 (hPPAR gamma) | EC50 (hPPAR delta) | EC50 (hPPAR alpha) | melting point | Structure (SMILES)
1 | 700 nM | 8740 nM | 5 nM |  | CCc1ccc(-c2sc(C(=O)NCc3ccc(OC(C)(C)C(=O)O)cc3)nc2C)cc1 [Example 2, 2-methyl-2–[4-{[(4-methyl-5-[4-ethylphenyl]thiazol-2-ylcarbonyl)amino]methyl}phenoxy]propionic Acid]
2 | 5880 nM | 10000 nM | 61 nM | 122 °C | Cc1nc(C(=O)NCc2ccc(OC(C)(C)C(=O)O)cc2)sc1-c1ccc(F)cc1 [Example 4, 2-methyl-2-[4-{[(4-methyl-5-[4-fluorophenyl]thiazol-2-ylcarbonyl)amino]methyl}phenoxy]propionic Acid]
3 |  |  |  | 97 °C | CCOC(=O)C(C)(C)Oc1ccc(CNC(=O)c2nc(C)c(-c3ccc(F)cc3)s2)cc1 [Example 3, 2-methyl-2-[4-{[(4-methyl-5-[4-fluorophenyl]thiazol-2-ylcarbonyl)amino]methyl}phenoxy]propionic Acid Ethyl Ester]
